The conditions of series [1]: cited from earlier work.
The conditions of series [2]: cited from earlier work; for Half-lives (t1/2app): human, in vivo.
A further series relates to mice. Particulars: metabolites identified in urine; cited from earlier work.
The conditions of series [3]: in vivo; cited from earlier work.
The conditions of series [4]: rats; cited from earlier work.
For series [5] the following is noted: humans; cited from earlier work.
The nature of series [6]: drug content of 80% saturated donor solution in propylene glycol. The note with it: 80% of saturation, saturated at 32° C. In kind it is physicochemical. On the procedure:
For standardization, saturated solutions of bupropion in propylene glycol were made and 80% of the saturated solution was used as donor solutions. 1,100 mg bupropion has been suspended in 6.0 ml propylene glycol and was vortexed at 90 rpm for 68 hrs at 32° C. in a thermostated shaking cupboard. Controls have been done every 24 hrs to assure that sufficient undissolved drug was in the vessel. Thereafter the suspension was centrifuged (3,000 rpm) for 10 minutes and the clear supernatant was used as saturated solution.
For the diffusion experiments the donor solutions were freshly prepared for each experiment, 550 mg of the bupropion base were suspended in 3.0 ml propylene glycol (PG) and treated as previously described.
A spectroflow 400 pump (Separations, Hendrik Ido Ambacht, The Netherlands) was used to deliver the mobile phase, consisting of acetronitrile 0.1 m KF2 PO4 pH3 20:80 (v/v) with a flow rate of 0.8 ml/min. The mobile phase was degassed with a vacuum pump and chromatography was performed at ambient temperature. Sample amounts of 20 μl were injected with a Gilson model 321 autosampler (Gilson Middleton, Wisconsin USA) with a 20 microliter loop built in onto a inertsil 5 ODS column (Chrompack Nederland BV, Bergen op Zoom, The Netherlands). […] Bupropion base was detected by UV absorption at 310 nm using a spectra 100 spectrophometer (Spectra-Physics, Breda, The Netherlands). […]

For series [7] the following is noted: rat; cited from earlier work.
Another series concerns albumin. Particulars: cited from earlier work.
For series [8] the following is noted: rats; cited from earlier work. This is another data set of the same source.
For series [9] the following is noted: dog, cited from earlier work.
The conditions of series [10]: mouse, cited from earlier work.
For series [11] the following is noted: dogs; cited from earlier work.
For series [12] the following is noted: oral administration; cited from earlier work.

Values joined by “and” are separate entries in the source; they are usually repeats but may differ in a detail not shown here. Equal values may be shown once. Where a name gives a salt, the structure may show the parent alone. Read-outs that look alike come from different tables or passages of the source.

On to `C[C@H](NC(C)(C)C)[C@H](O)c1cccc(Cl)c1` (relative stereo) [EB], for which the “quantifiability after oral dose” value in [1] (in vivo, po) is given as “not quantifiable”. Also, in [2], the “Half-lives (t1/2app)” value was 61.4 ± 21.6 h. In the series with mice, the activity in mice result is “have shown activity in mice”.
For the compound `C[C@@H](NC(C)(C)C)[C@H](O)c1cccc(Cl)c1` (relative stereo) [TB], the “kinetics relative to MM” value in series [1] (in vivo, po) is listed as “parallel that of MM”. In series [3], the “antidepressive effect potency relative to parent medicament” value is given as “half as parent medicament”. Further, the “Half-lives (t1/2app)” value in series [2] was 38.8 ± 7.6 h. Moreover, the activity in mice entry in the series with mice is given as “have shown activity in mice”.
Turning to `C[C@H](NC(C)(C)CO)[C@H](O)c1cccc(Cl)c1` (relative stereo) [erythro amino diol], in series [1] (in vivo, po), the “quantifiability after oral dose” value is listed as “not quantifiable”. Besides, the activity in mice entry in the series with mice is given as “have shown activity in mice”.
For the compound `CC1NC(C)(C)COC1(O)c1cccc(Cl)c1` (centres unmarked) [HB], in series [1] (single oral dose of bupropion), the “AUC relative to medicament drug” value was “fifteen times” and the “Cmax relative to medicament drug” value was “three times”. In addition, the “speed of appearance in the systemic circulation relative to parent” value in [1] (single oral dose) is recorded as “almost as fast”. For the same compound, the “antidepressive effect potency relative to parent medicament” value in [3] is on record as “half as potent”. Moreover, in the series with mice, the activity in mice entry is recorded as “have shown activity in mice”.
Turning to `CC(NC(C)(C)C)C(=O)c1cccc(Cl)c1` (centres unmarked) [bupropion hydrochloride], the extent of metabolism result in series [4] and in series [5] was “highly metabolized” each time.
As to `CC(NC(C)(C)C)C(=O)c1cccc(Cl)c1` (centres unmarked) [bupropion], the “drug content of 80% saturated solution” value in series [6] is on record as 104 mg/ml PG. Further, the first pass metabolism entry in [1] (in vivo) is on record as “very rapid first pass metabolism”. Further, in series [1] (oral dosage, 100 to 250 mgs), the “dose proportionality of drug blood concentration” value is on record as “dose proportional from 100 to 250 mgs”. Besides, the biological half life result in series [1] (oral dosage) is listed as “approximately 14 hours”. The “biological half life, range” value in series [1] (oral dosage) was 8-24 hours. For the same compound, the “time at which Cmax occurs” value in series [1] (oral dosage) was “approximately 2 hours”. Moreover, in series [1] (single oral dose), the “oral dose kinetics model” value is “best described by a 2 compartment open model with first order absorption”. Moreover, the “induction of its own metabolism” value in [7], in series [9] and in series [10] was “induces its own metabolism” in each case. For the same compound, in the series with albumin, the bound to albumin is 80%. In addition, the absolute bioavailability result in series [8] and in series [11] was “five to twenty” throughout. Besides, in [9] (two different dose levels, over one year of treatment), the “reductions (induction of own metabolism)” value was 76% and 90%. For the same compound, in [10] (over ten days), the “reduction (induction of own metabolism)” value was 58%. Besides, in series [2] (elderly patients, after multiple dosing), the “half-life change after multiple dosing” value is recorded as “did not change significantly”.
Consider `CC(NC(C)(C)C)C(=O)c1cccc(Cl)c1` (centres unmarked) [carbon 14 bupropion], for which, in series [12], the excreted unchanged result is given as “less than 0.5%”, the “radioactivity recovered in the feces” value is reported as 10% and the “radioactivity recovered in the urine” value is 87%.

The values are drawn from patent US6280763A, “Apparatus and method for transdermal delivery of bupropion” (priority 1999, dated 2001).
